From the NIST ThermoML archive (doi:10.1016/j.fluid.2012.06.028)

Experiment: xn = mol fraction of the nth substance listed
Settings: Liquid, Vibrating tube method

CCCCCCCCCCCCCC [tetradecane] + CCCCCCCCCC
mass density [kg/m3]
Settings	1000 kPa	2000 kPa	3000 kPa	4000 kPa	5000 kPa	6000 kPa	7000 kPa	8000 kPa	9000 kPa	10000 kPa
295 K, x2 = 0.5	746.3	–	747.6	748.3	749	749.7	–	751.1	751.7	–
295 K, x2 = 0.75	739.2	739.9	740.7	741.4	742.1	742.8	743.5	744.2	745	745.7
295.5 K, x2 = 0.25	753.2	753.9	754.6	755.3	756	756.7	757.4	758	758.7	759.4
